Assay results from the NIST ThermoML archive (doi:10.1016/j.jct.2012.02.023).
Numbers after ± are expanded uncertainties.

Conditions: Liquid; for speed of sound / mass density: 101.33 kPa; for speed of sound: Sing-around technique in a fixed-path interferometer; for mass density: Vibrating tube method; for vapor or sublimation pressure: Closed cell (Static) method

Row | speed of sound (293.15 K) | mass density (293.15 K) | speed of sound (303.15 K) | mass density (303.15 K) | speed of sound (313.15 K) | mass density (313.15 K) | speed of sound (323.15 K) | mass density (323.15 K) | vapor or sublimation pressure (303.15 K) | vapor or sublimation pressure (323.15 K) | SMILES
1 | 1598.5 ± 1.6 m/s | 1185.65 ± 0.38 kg/m3 | 1573.8 ± 1.6 m/s | 1178.86 ± 0.38 kg/m3 | 1550.1 ± 1.6 m/s | 1172.11 ± 0.37 kg/m3 | 1527 ± 1.6 m/s | 1165.37 ± 0.37 kg/m3 |  |  | CCCC[n+]1cccc(C)c1.F[B-](F)(F)F [1-butyl-3-methylpyridinium tetrafluoroborate]
2 | 1611.8 ± 1.6 m/s | 1185.92 ± 0.38 kg/m3 | 1586.7 ± 1.6 m/s | 1179.12 ± 0.38 kg/m3 | 1562.8 ± 1.6 m/s | 1172.12 ± 0.37 kg/m3 | 1539.3 ± 1.6 m/s | 1165.52 ± 0.37 kg/m3 |  |  | CCCC[n+]1ccc(C)cc1.F[B-](F)(F)F [1-butyl-4-methylpyridinium tetrafluoroborate]
3 | 1160.1 ± 1.2 m/s | 789.481 ± 0.15 kg/m3 | 1127.2 ± 1.2 m/s | 781.302 ± 0.15 kg/m3 | 1093.6 ± 1.2 m/s | 772.569 ± 0.15 kg/m3 | 1060.4 ± 1.2 m/s | 763.647 ± 0.16 kg/m3 | 10.47 ± 0.045 kPa | 29.57 ± 0.067 kPa | CCO [ethanol]
4 | 1118.8 ± 1.2 m/s | 791.243 ± 0.12 kg/m3 | 1086 ± 1.1 m/s | 781.813 ± 0.13 kg/m3 | 1053.5 ± 1.1 m/s | 772.287 ± 0.13 kg/m3 | 1021.5 ± 1.1 m/s | 762.628 ± 0.14 kg/m3 | 21.93 ± 0.08 kPa | 55.78 ± 0.12 kPa | CO [methanol]
